# Patent US20030091533A1, “Regulation of mononuclear phagocyte stimulation” (priority 2001, published 2003)
# System: ERK½
# Assay: ERK½ MAP kinase phosphorylation immunoblot in PBM
# Format: cell-based, human
# Settings: pretreatment before LPS 1 μg/ml; IL-9 20 ng/ml 24 hour; PD98059 1 hour
# Experimental: PBM, isolated as described infra, were treated with 100 !M PD98059 (or with the same volume of DMSO as control) 1 hour before preincubation for 24 hour with medium or IL-9 (20 ng/ml). For the phosphoERK immunoblot assay (A), PBM were then stimulated by LPS (1 μg/ml) for the indicated periods of time (5 min to 20 hours) as compared to unstimulated cells (med), and processed for the detection of phosphorylated and total ERK½ as described in infra. For the oxidative burst (B), PBM were stimulated by LPS (1 μg/ml) for 20 hour and their oxidative capacity was evaluated through DCFH oxidation The results are presented in FIG. 7.
# PBM were preincubated for 24 hour with medium alone (med) or IL-9, IL-4 or TGF-β1 (20 ng/ml), and stimulated by LPS (1 μg/ml) for the indicated periods of time (30 to 240 min). […]
# PBM (1×10^6) were preincubated for 24 hour with medium alone or with cytokines (IL-9, IL-4 or TGF-β1 at 20 ng/ml) and stimulated from 5 min to 20 hour by 1 μg/ml LPS. […] Cell extracts (10 μg, as determined by the bicinchoninic acid-based assay) were subjected to SDS-12%PAGE, and electrotransferred onto a nitrocellulose membrane (Amersham) immunoblotted to detect and compare phosphorylated (threonine^202/tyrosine^204 residues) and total ERK½, using specific antibodies and enhanced chemiluminescence (New England Biolabs). […]
substance,measurement,value
IL-9: Human IL-9 purified from SF9 insect cell cultures infected with recombinant baculovirus,LPS-induced ERK½ phosphorylation in PBM,strongly down regulates
